Like-named read-outs stand apart in the source and are kept apart here.
Assays:
human BACE2 = biological target: T1, human BACE2 (Homo sapiens, UniProt Q9Y5Z0); test: Fluorescent kinetic assay for human recombinant BACE 2 (WABC-6 peptide substrate); format: biochemical; conditions: for inhibition at 25 µM: read-out: BACE2. % inhibition; for IC50: 1.5 nM enzyme, 25 μM substrate, pH 4.5, room temperature
T1 sequence (Q9Y5Z0 63-518): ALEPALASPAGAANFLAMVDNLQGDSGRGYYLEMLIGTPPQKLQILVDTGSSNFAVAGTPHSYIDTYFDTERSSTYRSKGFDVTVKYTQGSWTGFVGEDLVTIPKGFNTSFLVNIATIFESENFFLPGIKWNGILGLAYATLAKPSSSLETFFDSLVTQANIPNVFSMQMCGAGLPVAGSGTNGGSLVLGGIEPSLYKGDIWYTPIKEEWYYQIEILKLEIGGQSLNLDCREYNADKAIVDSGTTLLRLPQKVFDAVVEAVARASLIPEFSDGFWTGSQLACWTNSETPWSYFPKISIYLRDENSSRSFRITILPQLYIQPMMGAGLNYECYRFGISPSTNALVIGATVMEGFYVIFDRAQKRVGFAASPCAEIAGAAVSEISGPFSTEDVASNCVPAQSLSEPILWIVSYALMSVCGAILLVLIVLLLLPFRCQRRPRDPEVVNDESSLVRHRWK
Protocol: Fluorescent Kinetic Assay for Human Recombinant BACE 2
This assay is used to provide kinetic and selectivity parameters for the analyses of the tested compounds.
Temperature: room temperature.
Dilution and Mixing Steps: Total Reaction Volume.: 100 μL • 1.
Readings at λex 320 nm, λem 420 nm are taken every 40-sec for 30 min at room temperature and to determine the linear slope for substrate cleavage rate (vi).

human BACE1 = human BACE1 (Homo sapiens, UniProt P56817); test: Fluorescent kinetic assay, inhibition of BACE1 (WABC-6 peptide substrate); format: biochemical
Protocol: Evaluation of the Enzyme Activity of Test Compounds and the Inhibition of hBACE1, MuBACE1 and hBACE2 by Test Compounds
The concentration is determined by absorbance at 354 nm using an extinction coefficient ε of 18172 M^−1cm^−1, The substrate stock is stored in small aliquots at −80° C. [Substrate Stock]=ABS^354 nm*10^6/18172 ([…])
Dilution and mixing steps: total reaction volume: 100 μL • 1. 2× inhibitor dilutions in buffer A (66.7 mM Na-Acetate, pH 4.5, 0.0667% CHAPS) are prepared, • 2. 4× enzyme dilution in buffer A (66.7 mM Na-Acetate, pH 4.5, 0.0667% CHAPS) are prepared, • 3. 100 μM substrate dilution in 1× PBS is prepared, • 4. 50 μL 2× Inhibitor and 25 μL 100 μM substrate are added to each well of 96-well plate (from DYNEX Technologies, VWR #: 11311-046), the immediately 25 μL 4× enzyme are added to the inhibitor and substrate mixer, the fluorescence readings are initiated.
Readings at λex 320 nm and λem 420 nm are taken every 40-sec for 30 min at room temperature to determine the linear slope for substrate cleavage rate (vi).

[1] = 10 nM enzyme, 25 μM substrate, pH 4.5, room temperature, read-out: IC50 (μM) BACE1.

Chain of human BACE1 (P56817 46-501): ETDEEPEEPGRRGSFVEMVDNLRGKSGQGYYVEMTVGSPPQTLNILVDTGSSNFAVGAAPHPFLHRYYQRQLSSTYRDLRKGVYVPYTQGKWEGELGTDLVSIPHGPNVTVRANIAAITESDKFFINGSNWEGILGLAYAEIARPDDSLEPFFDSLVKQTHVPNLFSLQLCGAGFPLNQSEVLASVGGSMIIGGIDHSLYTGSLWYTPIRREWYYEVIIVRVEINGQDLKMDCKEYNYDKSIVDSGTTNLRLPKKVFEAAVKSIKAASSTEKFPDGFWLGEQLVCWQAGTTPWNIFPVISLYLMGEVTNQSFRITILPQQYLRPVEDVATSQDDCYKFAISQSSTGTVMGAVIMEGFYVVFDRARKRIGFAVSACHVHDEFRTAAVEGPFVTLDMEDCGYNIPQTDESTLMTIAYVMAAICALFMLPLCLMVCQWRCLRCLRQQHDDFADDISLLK

Row | Structure (SMILES) | inhibition at 25 µM (human BACE2; at 25 μM) [%] | IC50 (human BACE2) [µM] | IC50 (human BACE1; [1]) [µM] | melting point [°C] | other results
1 | NC1=NC(c2ccc(OC(F)(F)F)cc2)(c2cccc(-c3ccc[n+]([O-])c3F)c2)C2=NCCCN12 (stereo not shown) [Example 34, 8-[3-(2-Fluoro 1-oxy-pyridin-3-yl)-phenyl]-8-(4-trifluoromethoxy-phenyl)-2,3,4,8-tetrahydro-imidazo[1,5-a]pyrimidin-6-ylamine] | 25 | – | – | – | –
2 | NC1=N[C@](c2ccc(OC(F)F)cc2)(c2cccc(-c3cccnc3F)c2)C2=NCCCN12 [Example 45A, (8R)-8-(4-Difluoromethoxy-phenyl)-8-[3-(2-fluoro-pyridin-3-yl)-phenyl]-2,3,4,8-tetrahydro-imidazo[1,5-a]pyrimidin-6-ylamine] | – | 0.7 | 0.01 | – | –
3 | NC1=N[C@](c2ccc(OC(F)(F)F)cc2)(c2cccc(-c3cncc(Cl)c3)c2)C2=NCCCN12 [Example 32B, (8R)-8-[3-(5-Chloropyridin-3-yl)phenyl]-8-[4-(trifluoromethoxy)-phenyl]-2,3,4,8-tetrahydroimidazo[1,5-a]pyrimidin-6-amine] | 34 | – | – | – | inhibition at 5 µM (human BACE1): 19%
4 | CC1(C)CN2C(N)=NC(c3ccc(OC(F)(F)F)cc3)(c3cccc(-c4cccnc4F)c3)C2=N1 (stereo not shown) [Example 42, 7-[3-(2-Fluoropyridin-3-yl)phenyl]-2,2-dimethyl-7-(4-trifluoromethoxyphenyl)-2,7-dihydro-3H-imidazo[1,5-a]imidazol-5-ylamine] | 52 | – | 0.15 | – | –
5 | NC1=NC(c2ccc(OC(F)(F)F)cc2)(c2cccc(-c3cnccc3F)c2)C2=NCCCN12 (stereo not shown) [Example 27, 8-[3-(4-fluoropyridin-3-yl)phenyl]-8-[4-(trifluoromethoxy)phenyl]-2,3,4,8-tetrahydroimidazo[1,5-a]pyrimidin-6-amine] | – | – | – | 83 to 97 | –
6 | NC1=NC(c2ccc(OC(F)F)cc2)(c2cccc(-c3cccnc3F)c2)C2=NCC3(COC3)CN12 (stereo not shown) [Example 46, 8-[4-(Difluoromethoxy)phenyl]-8-[3-(2-fluoropyridin-3-yl)phenyl]-2,8-dihydrospiro[imidazo[1,5-a]pyrimidine-3,3′-oxetan]-6-amine] | – | 0.55 | 0.01 | 96 to 107 | –
7 | NC1=NC(c2cccc(-c3cccnc3F)c2)(c2ccc3c(c2)OCO3)C2=NCCCN12 (stereo not shown) [Example 40, 8-Benzo[1,3]dioxol-5-yl-8-[3-(2-fluoro-pyridin-3-yl)-phenyl]-2,3,4,8-tetrahydro-imidazo[1,5-a]pyrimidin-6-ylamine] | – | – | – | 106 to 119 | IC50 (human BACE1; read-out: IC50 (μM) BACE1.): 0.16 µM
8 | NC1=N[C@](c2ccc(OC(F)(F)F)cc2)(c2cccc(-c3cccnc3F)c2)C2=NCCCN12 (single isomer, unassigned) [Example 30A] | 35 | – | – | – | –
9 | COc1ccc(C2(c3ccc(F)c(-c4cccnc4F)c3)N=C(N)N3CCCN=C32)cc1 (stereo not shown) [Example 24, 8-[4-fluoro-3-(2-fluoropyridin-3-yl)phenyl]-8-(4-methoxyphenyl)-2,3,4,8-tetrahydroimidazo[1,5-a]pyrimidin-6-amine] | – | 8.18 | 0.06 | 115 | –
10 | NC1=NC(c2ccc(OC(F)(F)F)cc2)(c2cccc(-c3cccnc3F)c2)C2=NCCCCCN12 (stereo not shown) [Example 37, 1-[3-(2-Fluoro-pyridin-3-yl)-phenyl]-1-(4-trifluoromethoxy-phenyl)-1,4,5,6,7,8-hexahydro-2,3a,9-triaza-cyclopentacycloocten-3-ylamine] | – | 10.8 | – | – | –
11 | NC1=NC(c2ccc(OC(F)(F)F)cc2)(c2cccc(-c3cncnc3)c2)c2nccn21 (stereo not shown) [Example 5] | 50 | – | 0.23 | – | –
12 | NC1=N[C@@](c2ccc(OC(F)(F)F)cc2)(c2cccc(-c3cncnc3)c2)C2=NCCCN12 (single isomer, unassigned) [Example 31B] | – | – | – | – | inhibition at 25 µM (human BACE2): 28%
13 | NC1=N[C@@](c2ccc(OC(F)(F)F)cc2)(c2cccc(-c3cccnc3F)c2)C2=NCCCN12 (single isomer, unassigned) [Example 30B] | – | 3.79 | – | – | –
14 | NC1=N[C@@](c2ccc(OC(F)(F)F)cc2)(c2cccc(-c3cnccc3F)c2)C2=NCCCN12 [Example 33A, (8S)-8-[3-(4-fluoropyridin-3-yl)phenyl]-8-[4-(trifluoromethoxy)-phenyl]-2,3,4,8-tetrahydroimidazo[1,5-a]pyrimidin-6-amine] | – | 4 | 0.05 | – | –
15 | NC1=N[C@](c2ccc(OC(F)(F)F)cc2)(c2cccc(-c3cncnc3)c2)C2=NCCCN12 (single isomer, unassigned) [Example 31A] | – | 10.4 | – | – | –
16 | NC1=NC(c2ccc(OC(F)(F)F)cc2)(c2cccc(-c3cncnc3)c2)C2=NCCCN12 (stereo not shown) [Example 16, 8-(3-pyrimidin-5-ylphenyl)-8-[4-(trifluoromethoxy)phenyl]-2,3,4,8-tetrahydroimidazo[1,5-a]pyrimidin-6-amine] | – | – | – | 214 to 218 | inhibition at 25 µM (human BACE2): 49%
17 | NC1=N[C@@](c2ccc(OC(F)F)cc2)(c2cccc(-c3cccnc3F)c2)C2=NCCCN12 [Example 45B, (8S)-8-(4-Difluoromethoxy-phenyl)-8-[3-(2-fluoro-pyridin-3-yl)-phenyl]-2,3,4,8-tetrahydro-imidazo[1,5-a]pyrimidin-6-ylamine] | 60 | – | – | – | inhibition at […] (human BACE1; at 2.5 uM): 49%
18 | NC1=NC(c2ccc(OC(F)(F)F)cc2)(c2cccc(-c3cccnc3F)c2)C2=NCCCCN12 (stereo not shown) [Example 36, 9-[3-(2-Fluoro-pyridin-3-yl)-phenyl]-9-(4-trifluoromethoxy-phenyl)-2,4,5,9-tetrahydro-3H-imidazo[1,5-a][1,3]diazepin-7-ylamine] | – | 7.32 | – | – | IC50 (human BACE1): 0.071 µM
19 | NC1=NC(c2ccc(OC(F)(F)F)cc2)(c2cccc(-c3cccnc3F)c2)C2=NCCCN12 (stereo not shown) [Example 17, 8-[3-(2-fluoropyridin-3-yl)phenyl]-8-[4-(trifluoromethoxy)phenyl]-2,3,4,8-tetrahydroimidazo[1,5-a]pyrimidin-6-amine] | – | 11.4 | – | 105 to 115 | –
20 | NC1=N[C@@](c2ccc(OC(F)(F)F)cc2)(c2cccc(-c3cncc(Cl)c3)c2)C2=NCCCN12 [Example 32A, (8S)-8-[3-(5-Chloropyridin-3-yl)phenyl]-8-[4-(trifluoromethoxy)-phenyl]-2,3,4,8-tetrahydroimidazo[1,5-a]pyrimidin-6-amine] | – | 0.272 | 0.029 | – | –
21 | COc1ccc(C2(c3cccc(-c4cncnc4)c3)N=C(N)N3CCCN=C32)cc1 (stereo not shown) [Example 22, 8-(4-methoxyphenyl)-8-(3-pyrimidin-5-ylphenyl)-2,3,4,8-tetrahydroimidazo[1,5-a]pyrimidin-6-amine] | 60 | – | – | 136 to 140 | –
22 | N#CNC1=NC(c2ccc(OC(F)(F)F)cc2)(c2cccc(-c3cncnc3)c2)C2=NCCCN12 (stereo not shown) [Example 29, 8-(3-Pyrimidin-5-yl-phenyl)-8-(4-trifluoromethoxy-phenyl)-2,3,4,8-tetrahydro-imidazo[1,5-a]pyrimidin-6-yl-cyanamide] | – | – | – | 227 to 231 | –
23 | NC1=N[C@](c2ccc(OC(F)(F)F)cc2)(c2cccc(-c3cnccc3F)c2)C2=NCCCN12 [Example 33B, (8R)-8-[3-(4-fluoropyridin-3-yl)phenyl]-8-[4-(trifluoromethoxy)phenyl]-2,3,4,8-tetrahydroimidazo[1,5-a]pyrimidin-6-amine] | 25 | – | – | – | inhibition at 5 µM (human BACE1): 43%
